In patent US20060069132A1, “Azolecarboxamide herbicides” (priority 2004, published 2006):

Key:
morningglory = experiment: Test B pre-/postemergence herbicide test; assay type: in vivo, Ipomoea coccinea
Method in brief: (§1)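 Evaluation is visual, comparing treated with control plants on a scale where 0 means no effect and 100 means full control. Treatments were preemergence, or postemergence on seedlings 2–18 cm tall, and held 13–15 days in the greenhouse.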

giant foxtail = experiment: Test B pre-/postemergence herbicide test; assay type: in vivo, Setaria faberi
Method in brief: (§2)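 Response was scored visually 13 to 15 days after treatment against untreated greenhouse controls, 0 meaning no effect and 100 complete control. Formulations (solvent mixture plus surfactant) went onto soil after planting, onto foliage of 1- to 4-leaf plants, and onto 2-leaf plants in a flooded paddy set including rice and barnyardgrass.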

wheat = experiment: Test B postemergence herbicide test; assay type: in vivo, Triticum aestivum; set-up: key to Wheat plant response rating: 0 = no effect, 100 = complete control
Method in brief: (§3)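 Postemergence plants were sprayed with formulated test chemicals at 2 to 18 cm height (1- to 4-leaf stage); paddy species were grown to the 2-leaf stage. After 13 to 15 days in a greenhouse, injury was rated visually against untreated controls on a 0–100 scale (0 = no effect, 100 = complete control).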

barnyardgrass [1] = experiment: Test B flooded paddy test; assay type: in vivo, Echinochloa crus-galli; details: 1000 g ai/ha, scale 0 to 100 (0 no effect, 100 complete control)
Method in brief: (§4)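 Each value is a visual 0–100 response rating taken against controls 13 to 15 days after treatment in the greenhouse. Plants received formulated chemical postemergence at the 1- to 4-leaf stage or, in flooded paddy, at the 2-leaf stage.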

wild oat = experiment: Test B postemergence herbicide test; assay type: in vivo, Avena fatua
Method in brief: as §3

cocklebur = experiment: Test B pre-/postemergence herbicide test; assay type: in vivo, Xanthium strumarium
Method in brief: as §1

pigweed = experiment: Test B pre-/postemergence herbicide test; assay type: in vivo, Amaranthus retroflexus
Method in brief: as §2

rice = experiment: Test B flooded paddy test; assay type: in vivo, Oryza sativa; details: 1000 g ai/ha, scale 0 to 100 (0 no effect, 100 complete control)
Method in brief: as §3

corn = experiment: Test B pre-/postemergence herbicide test; assay type: in vivo, Zea mays
Method in brief: as §2

lambsquarters = experiment: Test B pre-/postemergence herbicide test; assay type: in vivo, Chenopodium album
Method in brief: as §2

barnyardgrass [2] = experiment: Test B pre-/postemergence herbicide test; assay type: in vivo, Echinochloa crus-galli; details: for Barnyardgrass plant response rating: scale 0 (no effect) to 100 (complete control)
Method in brief: as §1

large crabgrass = experiment: Test B pre-/postemergence herbicide test; assay type: in vivo, Digitaria sanguinalis
Method in brief: as §2

velvetleaf = experiment: Test B pre-/postemergence herbicide test; assay type: in vivo, Abutilon theophrasti
Method in brief: as §2

ducksalad = experiment: Test B flooded paddy test; assay type: in vivo, Heteranthera limosa; details: 1000 g ai/ha, scale 0 to 100 (0 no effect, 100 complete control)
Method in brief: as §4

Surinam grass = experiment: Test B pre-/postemergence herbicide test; assay type: in vivo, Urochloa decumbens
Method in brief: as §2

[3] = 125 g ai/ha, 0 is no effect, 100 is complete control, preemergence
[4] = Postemergence, 500 g ai/ha, scale 0 (no effect) to 100 (complete control)
[5] = postemergence, 125 g ai/ha, scale 0 to 100
[6] = 125 g ai/ha, 0 = no effect, 100 = complete control, preemergence
[7] = 500 g ai/ha, visual rating 0-100, 0 no effect, 100 complete control, preemergence
[8] = postemergence, 125 g ai/ha, visual rating, scale 0 (no effect) to 100 (complete control)
[9] = postemergence, 500 g ai/ha, visual rating, scale 0 (no effect) to 100 (complete control)
[10] = postemergence, 125 g ai/ha, visual rating
[11] = postemergence, 500 g ai/ha, visual rating
[12] = preemergence, 125 g ai/ha, 0 to 100 scale, 0 is no effect, 100 is complete control

## Cc1nn(C(C)(C)C)nc1C(=O)Nc1cccc(C(=S)N(C)C)c1 [Compound 419]
morningglory; [3]
  Plant response rating (0 to 100 scale), Morningglory: 50
morningglory; [4]
  Morningglory plant response rating: 90
morningglory; [5]
  Morningglory plant response rating: 80
Giant foxtail; [3]
  Plant response rating (0 to 100 scale), Foxtail, Giant: 90
Giant foxtail; [4]
  Foxtail, Giant plant response rating: 30
Giant foxtail; [5]
  Foxtail, Giant plant response rating: 30
wheat; 500 g ai/ha, scale 0 to 100, 0 no effect, 100 complete control, preemergence
  Wheat plant response rating: 100
wheat; [4]
  Wheat plant response rating: 20
wheat; [5]
  Wheat plant response rating: 10
Barnyardgrass [1]
  Barnyardgrass plant response rating: 90
Wild oat; [4]
  Oat, Wild plant response rating: 20
Wild oat; [5]
  Oat, Wild plant response rating: 0
cocklebur; [3]
  Plant response rating (0 to 100 scale), Cocklebur: 30
cocklebur; [4]
  Cocklebur plant response rating: 40
cocklebur; [5]
  Cocklebur plant response rating: 20
pigweed; [3]
  Plant response rating (0 to 100 scale), Pigweed: 100
pigweed; [4]
  Pigweed plant response rating: 80
pigweed; [5]
  Pigweed plant response rating: 60
rice
  Rice plant response rating: 80
corn; [3]
  Plant response rating (0 to 100 scale), Corn: 70
corn; [4]
  Corn plant response rating: 30
corn; [5]
  Corn plant response rating: 20
lambsquarters; [3]
  Plant response rating (0 to 100 scale), Lambsquarters: 100
lambsquarters; [4]
  Lambsquarters plant response rating: 90
lambsquarters; [5]
  Lambsquarters plant response rating: 70
Barnyardgrass [2]; [3]
  Plant response rating (0 to 100 scale), Barnyardgrass: 100
Barnyardgrass [2]; Postemergence, 125 g ai/ha
  Barnyardgrass plant response rating: 20
Barnyardgrass [2]; Postemergence, 500 g ai/ha
  Barnyardgrass plant response rating: 50
Large crabgrass; [3]
  Plant response rating (0 to 100 scale), Crabgrass, Large: 100
Large crabgrass; [4]
  Crabgrass, Large plant response rating: 40
Large crabgrass; [5]
  Crabgrass, Large plant response rating: 30
velvetleaf; [3]
  Plant response rating (0 to 100 scale), Velvetleaf: 70
velvetleaf; [4]
  Velvetleaf plant response rating: 50
velvetleaf; [5]
  Velvetleaf plant response rating: 20
ducksalad
  Ducksalad plant response rating: 70
Surinam grass; [3]
  Plant response rating (0 to 100 scale), Surinam Grass: 90
Surinam grass; [4]
  Surinam Grass plant response rating: 30
Surinam grass; [5]
  Surinam Grass plant response rating: 20

## CCc1nc(C(C)(C)C)sc1C(=O)Nc1cccc(C(=O)NCCF)c1 [Compound 209]
morningglory; [6]
  Morningglory plant response rating (0 to 100 scale): 10
morningglory; [7]
  Plant response rating, Morningglory: 20
morningglory; [8]
  Morningglory plant response rating: 20
morningglory; [9]
  Morningglory plant response rating: 20
Giant foxtail; [6]
  Foxtail, Giant plant response rating (0 to 100 scale): 30
Giant foxtail; [7]
  Plant response rating, Foxtail, Giant: 60
Giant foxtail; [8]
  Foxtail, Giant plant response rating: 20
Giant foxtail; [9]
  Foxtail, Giant plant response rating: 30
wheat; [8]
  Wheat plant response rating: 10
wheat; [9]
  Wheat plant response rating: 20
Barnyardgrass [1]; visual rating, 13 to 15 days
  Barnyardgrass plant response rating: 60
Wild oat; [8]
  Oat, Wild plant response rating: 20
Wild oat; [9]
  Oat, Wild plant response rating: 20
cocklebur; [6]
  Cocklebur plant response rating (0 to 100 scale): 10
cocklebur; [7]
  Plant response rating, Cocklebur: 30
cocklebur; [8]
  Cocklebur plant response rating: 30
cocklebur; [9]
  Cocklebur plant response rating: 40
pigweed; [6]
  Pigweed plant response rating (0 to 100 scale): 70
pigweed; [7]
  Plant response rating, Pigweed: 100
pigweed; [8]
  Pigweed plant response rating: 30
pigweed; [9]
  Pigweed plant response rating: 40
rice; visual rating, 13 to 15 days
  Rice plant response rating: 50
corn; [6]
  Corn plant response rating (0 to 100 scale): 0
corn; [7]
  Plant response rating, Corn: 50
corn; [8]
  Corn plant response rating: 20
corn; [9]
  Corn plant response rating: 30
lambsquarters; [6]
  Lambsquarters plant response rating (0 to 100 scale): 60
lambsquarters; [7]
  Plant response rating, Lambsquarters: 100
lambsquarters; [8]
  Lambsquarters plant response rating: 40
lambsquarters; [9]
  Lambsquarters plant response rating: 40
Barnyardgrass [2]; [6]
  Barnyardgrass plant response rating (0 to 100 scale): 50
Barnyardgrass [2]; [7]
  Plant response rating, Barnyardgrass: 90
Barnyardgrass [2]; [10]
  Barnyardgrass plant response rating: 10
Barnyardgrass [2]; [11]
  Barnyardgrass plant response rating: 20
Large crabgrass; [6]
  Crabgrass, Large plant response rating (0 to 100 scale): 40
Large crabgrass; [7]
  Plant response rating, Crabgrass, Large: 60
Large crabgrass; [8]
  Crabgrass, Large plant response rating: 20
Large crabgrass; [9]
  Crabgrass, Large plant response rating: 20
velvetleaf; [6]
  Velvetleaf plant response rating (0 to 100 scale): 10
velvetleaf; [7]
  Plant response rating, Velvetleaf: 50
velvetleaf; [8]
  Velvetleaf plant response rating: 20
velvetleaf; [9]
  Velvetleaf plant response rating: 20
ducksalad; visual rating, 13 to 15 days
  Ducksalad plant response rating: 80
Surinam grass; [6]
  Surinam Grass plant response rating (0 to 100 scale): 20
Surinam grass; [7]
  Plant response rating, Surinam Grass: 50
Surinam grass; [8]
  Surinam Grass plant response rating: 20
Surinam grass; [9]
  Surinam Grass plant response rating: 20

## CCn1nc(C(C)(C)C)cc1C(=O)Nc1cccc(C(C)=O)c1 [Compound 122]
morningglory; [7]
  Plant response rating, Morningglory: 70
morningglory; [8]
  Morningglory plant response rating: 0
morningglory; [9]
  Morningglory plant response rating: 0
morningglory; [12]
  Plant response rating, Morningglory: 20
Giant foxtail; [7]
  Plant response rating, Foxtail, Giant: 80
Giant foxtail; [8]
  Foxtail, Giant plant response rating: 10
Giant foxtail; [9]
  Foxtail, Giant plant response rating: 20
Giant foxtail; [12]
  Plant response rating, Foxtail, Giant: 50
wheat; [8]
  Wheat plant response rating: 0
wheat; [9]
  Wheat plant response rating: 10
Barnyardgrass [1]; visual rating, 13 to 15 days
  Barnyardgrass plant response rating: 60
Wild oat; [8]
  Oat, Wild plant response rating: 10
Wild oat; [9]
  Oat, Wild plant response rating: 40
cocklebur; [7]
  Plant response rating, Cocklebur: 70
cocklebur; [8]
  Cocklebur plant response rating: 70
cocklebur; [9]
  Cocklebur plant response rating: 90
cocklebur; [12]
  Plant response rating, Cocklebur: 20
pigweed; [7]
  Plant response rating, Pigweed: 80
pigweed; [8]
  Pigweed plant response rating: 0
pigweed; [9]
  Pigweed plant response rating: 10
pigweed; [12]
  Plant response rating, Pigweed: 70
rice; visual rating, 13 to 15 days
  Rice plant response rating: 70
corn; [7]
  Plant response rating, Corn: 30
corn; [8]
  Corn plant response rating: 10
corn; [9]
  Corn plant response rating: 10
corn; [12]
  Plant response rating, Corn: 0
lambsquarters; [7]
  Plant response rating, Lambsquarters: 100
lambsquarters; [8]
  Lambsquarters plant response rating: 0
lambsquarters; [9]
  Lambsquarters plant response rating: 0
lambsquarters; [12]
  Plant response rating, Lambsquarters: 80
Barnyardgrass [2]; [7]
  Plant response rating, Barnyardgrass: 90
Barnyardgrass [2]; [10]
  Barnyardgrass plant response rating: 0
Barnyardgrass [2]; [11]
  Barnyardgrass plant response rating: 20
Barnyardgrass [2]; [12]
  Plant response rating, Barnyardgrass: 80
Large crabgrass; [7]
  Plant response rating, Crabgrass, Large: 100
Large crabgrass; [8]
  Crabgrass, Large plant response rating: 10
Large crabgrass; [9]
  Crabgrass, Large plant response rating: 10
Large crabgrass; [12]
  Plant response rating, Crabgrass, Large: 90
velvetleaf; [7]
  Plant response rating, Velvetleaf: 60
velvetleaf; [8]
  Velvetleaf plant response rating: 10
velvetleaf; [9]
  Velvetleaf plant response rating: 20
velvetleaf; [12]
  Plant response rating, Velvetleaf: 40
ducksalad; visual rating, 13 to 15 days
  Ducksalad plant response rating: 80
Surinam grass; [7]
  Plant response rating, Surinam Grass: 70
Surinam grass; [8]
  Surinam Grass plant response rating: 10
Surinam grass; [9]
  Surinam Grass plant response rating: 10
Surinam grass; [12]
  Plant response rating, Surinam Grass: 20
